PubChem BioAssay (NCI)
Values joined by “and” are separate entries in the source; they are usually repeats but may differ in a detail not shown here. Equal values may be shown once.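 In this assay, cells in 96-well plates receive the compound at five concentrations for 48 hours. Endpoints are linearly interpolated between the surrounding concentrations. The concentration for 50% growth inhibition is given as GI50. TGI denotes the concentration required for complete inhibition of growth.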 *1 amine or outer side, *2 acyl side, *3 side chain or, on linkers, in order; H or OH if unused. Where a SMILES comes first, the peptide text is derived from it. Bridges are numbered along the chain shown (N, C = ends). [ ]: non-standard residue; d: D form. The star is where a group is joined. X19 = O=C([C@H](N[*:1])c1ccc(O[C@H]2O[C@@H](CO)[C@@H](O)[C@@H](O)[C@H]2O[C@@H]2O[C@H](CO)[C@H](O)[C@H](O)[C@@H]2O)cc1)[*:2]; X18 = NC(=O)[C@@H](O[*:3])[C@H](N[*:1])C(=O)[*:2]; X20 = O=C([C@H](N[*:1])c1ccc(O)c(Cl)c1)[*:2]; d(aThr) = C[C@@H](O)[C@@H](N)C(=O)O; dHpg = N[C@@H](C(=O)O)c1ccc(O)cc1; X17 = CC(C)C/C=C/C=C/C(=O)*; dOrn = NCCC[C@@H](N)C(=O)O

Legend:
Assay in all cases: NCI anticancer screen, dose series, 48 h
[1] = tested on: HCT-116 colon
[2] = tested on: HCT-15 colon
[3] = tested on: LOX IMVI melanoma
[4] = tested on: M14 melanoma
[5] = tested on: OVCAR-5 ovarian
[6] = tested on: RPMI-8226 leukemia
[7] = tested on: RXF 393 renal
[8] = tested on: SF-295 CNS
[9] = tested on: SF-539 CNS
[10] = tested on: SK-MEL-28 melanoma

SMILES	TGI [1]	TGI [2]	TGI [3]	TGI [4]	TGI [5]	TGI [6]	TGI [7]	TGI [8]	TGI [9]	TGI [10]	GI50 [1]	GI50 [2]	GI50 [3]	GI50 [4]	GI50 [5]	GI50 [6]	GI50 [7]	GI50 [8]	GI50 [9]	GI50 [10]
ClC1(c2ccccc2)c2ccc(Br)cc2-c2cc(Br)ccc21	28.5 µM	33.8 µM	33.2 µM	28.7 µM	31.4 µM	64.8 µM	36.6 µM	31.8 µM	33.3 µM	35.8 µM	–	–	–	–	–	–	–	–	–	–
CC1=C2C(=O)C(C)(C)C=C2C(=O)[C@](C)(O)C12CC2	> 1 µM	> 1 µM	> 1 µM	> 1 µM	> 1 µM	> 1 µM	> 1 µM	> 1 µM	> 1 µM	> 1 µM	–	–	–	–	–	–	–	–	–	–
CC(C)C/C=C/C=C/C(=O)N[C@@H](CC(N)=O)C(=O)N[C@@H]1C(=O)N[C@H](c2ccc(O)cc2)C(=O)N[C@H](CCCN)C(=O)N[C@H]([C@@H](C)O)C(=O)N[C@H](c2ccc(O)cc2)C(=O)N[C@H](c2ccc(O)cc2)C(=O)N[C@H]([C@H](C)O)C(=O)N[C@H](Cc2ccccc2)C(=O)N[C@H](CCCN)C(=O)N[C@H](c2ccc(O[C@H]3O[C@@H](CO)[C@@H](O)[C@@H](O)[C@H]3O[C@@H]3O[C@H](CO)[C@H](O)[C@H](O)[C@@H]3O)cc2)C(=O)N[C@H]([C@H](C)O)C(=O)N[C@H](c2ccc(O)cc2)C(=O)NCC(=O)N[C@H](CC(C)C)C(=O)N[C@H](C)C(=O)N[C@H](c2ccc(O)c(Cl)c2)C(=O)O[C@@H]1C(N)=O (X17-N[X18][dHpg][dOrn][d(aThr)][dHpg][dHpg][dT][dF][dOrn][X19][dT][dHpg]G[dL][dA][X20]; ester 2-C)	> 100 µM	> 100 µM	> 100 µM	> 100 µM	63.5 µM	> 100 µM	> 100 µM	46.1 µM	60.9 µM	47.8 µM	32.9 µM	30.3 µM	29.5 µM	38.4 µM	27 µM	59.8 µM	86 µM	15.8 µM	22.8 µM	23.6 µM
C#Cc1cccc(Nc2ncnc3ccc(-c4cnc(Cl)c(NS(C)(=O)=O)c4)cc23)c1	3.15 µM	1.97 µM	1.8 µM	2.41 µM	2.73 µM	2.66 µM	0.996 µM	2.17 µM	1.68 µM	1.93 µM	0.4 µM	0.295 µM	0.281 µM	0.368 µM	0.329 µM	0.412 µM	0.218 µM	0.376 µM	0.302 µM	0.182 µM
O=C1c2cccc3cc([N+](=O)[O-])cc(c23)C(=O)N1CCN1CCCC1	> 100 µM	–	3.27 µM	2.08 µM	> 19.7 µM	1.27 µM	3.01 µM	0.734 µM	2.04 µM	2.9 µM	0.441 µM	0.334 µM	0.297 µM	0.451 µM	1.78 µM	0.203 µM	0.839 µM	0.227 µM	0.487 µM	1.3 µM
CCOC(=O)C#Cc1ccc([N+](=O)[O-])cc1	3.03 µM	4.33 µM	2.77 µM	5.34 µM	2.83 µM	4.68 µM	2.63 µM	25.6 µM	6.69 µM	23.4 µM	–	–	–	–	–	–	–	–	–	–
CCN(CC)CCOC(=O)/C(=C/c1ccc(OC)cc1)c1cc(OC)c(OC)c(OC)c1	> 100 µM	> 100 µM	18.6 µM	19.9 µM	43.7 µM	52.5 µM	5 µM	6.3 µM	10.8 µM	> 100 µM	–	–	–	–	–	–	–	–	–	–
CCC(O)(c1ccc(OC)cc1)C(c1ccc(OCc2ccccc2)cc1)c1ccc(OCc2ccccc2)cc1 (centres undefined)	> 100 µM	> 100 µM	> 100 µM	> 100 µM	> 100 µM	> 100 µM	> 100 µM	> 100 µM	> 100 µM	> 100 µM	–	–	–	–	–	–	–	–	–	–
Oc1cccc(Cn2c(-c3cccc(O)c3O)nc3ccccc32)c1O	10.9 µM	14.9 µM	15.3 µM	15.5 µM	48.1 µM	> 100 µM	25.4 µM	10.5 µM	38.4 µM	27.6 µM	2.24 µM	2.08 µM	2.84 µM	3.3 µM	10.9 µM	9.69 µM	5.82 µM	1.88 µM	9.49 µM	10.9 µM
Cc1cccc2c1NC(=O)[C@@]21[C@H](C(=O)c2ccccc2)[C@]2(C(=O)Nc3ccccc32)[C@H]2CCCN21	46.5 µM	> 100 µM	> 100 µM	> 100 µM	> 100 µM	> 100 µM	47.5 µM	> 100 µM	48.9 µM	> 100 µM	15.2 µM	25.1 µM	34.5 µM	43.3 µM	> 100 µM	> 100 µM	13.5 µM	74.6 µM	18.6 µM	34.3 µM
CC(C)(C)N1CC(OC(N)=O)C1	> 100 µM	> 100 µM	> 100 µM	> 100 µM	> 100 µM	> 100 µM	> 100 µM	> 100 µM	> 100 µM	> 100 µM	> 100 µM	> 100 µM	> 100 µM	> 100 µM	> 100 µM	> 100 µM	> 100 µM	> 100 µM	> 100 µM	> 100 µM
COc1cc2c(Nc3ccc(Br)cc3F)ncnc2cc1OCC1CCN(C)CC1	15.1 µM and > 10 µM	11.5 µM and > 10 µM	8.83 µM and > 10 µM	3.62 µM and 3.66 µM	18.7 µM and > 10 µM	14 µM and > 10 µM	4.77 µM and 8.32 µM	15.3 µM and > 10 µM	9.49 µM and > 10 µM	3.27 µM and 4.2 µM	3.8 µM and 4.32 µM	2.27 µM and 2.95 µM	2.37 µM and 3.39 µM	1.91 µM and 1.74 µM	2.65 µM and 3.23 µM	3.33 µM and 6.84 µM	1.44 µM and 1.29 µM	5.39 µM and > 10 µM	2.93 µM and 7.94 µM	1.68 µM and 1.78 µM
C[C@@H](Oc1cc(NS(=O)(=O)N2CCC2)nc(SCc2cccc(F)c2F)n1)[C@@H](O)CO	> 100 µM	> 100 µM	> 100 µM	> 100 µM	> 100 µM	> 100 µM	> 100 µM	> 100 µM	> 100 µM	> 100 µM	> 100 µM	> 100 µM	> 100 µM	> 100 µM	> 100 µM	> 100 µM	> 100 µM	> 100 µM	> 100 µM	> 100 µM
